Assay results reported in patent EP4180043A1, “RUTHENIUM COMPLEXES” (Universidad de Almeria, priority 2020, dated 2022).

System: cancer cells
Experiment: antiproliferative activity (anticancer properties)
Type: cell-based
Details: cell line not stated; cisplatin in the same experiment; read-out: antiproliferative activity indicated by the cell survival half-life factor (IC50)
Experimental: Three examples of bi-heterometallic compounds which would be obtained from that compound present better activity as shown by their IC50: IC50 Ru-Zn: 9.07±0.27; IC50 Ru-Co: 5.40±0.19; IC50 Ru-Ni: 7.15±0.30 µM. Ru-Zn = [Ru(η^6-C10H14)(Cl2)-µ-dmoPTA-1κP:2κ^2N,N'-ZnCl2]. Ru-Co = [Ru(η^6-C10H14)(Cl2)-µ-dmoPTA-1κP:2κ^2N,N'-CoCl2]. Ru-Ni = [Ru(η^6-C10H14)(Cl2)-µ-dmoPTA-1κP:2κ^2N,N'-NiCl2].

Compound	IC50 [µM]
[Ru(η^6-C10H14)(Cl2)(HdmoPTA)](OSO2CF3)	32.09 ± 0.3
[Ru(η^6-C10H14)(Cl2)-µ-dmoPTA-1κP:2κ^2N,N'-ZnCl2] [Ru-Zn]	9.07 ± 0.27
[Ru(η^6-C10H14)(Cl2)-µ-dmoPTA-1κP:2κ^2N,N'-CoCl2] [Ru-Co]	5.4 ± 0.19
N.N.[Cl][Pt][Cl] [cisplatin, reference compound]	45.6 ± 8.08
[Ru(η^6-C10H14)(Cl2)-µ-dmoPTA-1κP:2κ^2N,N'-NiCl2] [Ru-Ni]	7.15 ± 0.3
